Measured values published in patent publication US20050277617A1, “Drugs against articular failure” (KABUSHIKI KAISHA HAYASHIBARA SEIBUTSU KAGAKU KENKYUJO, priority 2000, published 2005).

System: arthritis induced rat
Experiment: Arthritis induced by type II collagen immunization in rats; increasing rate of hind foot volume
Type: in vivo
Conditions: for Enhancement of the alleviation effect of amino sugars on arthritis: Experiment 3, saccharide used instead of trehalose in the design of Experiment 1; for Judgment (symbol) of the effect of alleviating arthritis / Relative value of the average of increasing rate of hind foot volume when the average in the control group was regarded as 100: Experiment 1, daily until day 24, GlcN or GlcNAc 100, Ch4S 50, Trehalose 200 mg/kg body weight/day, female Lewis rats
Description: Thirty-six female Lewis rats, aged 6-weeks, were divided into 12 groups consisting of three rats per group. Glucosamine, N-acetylglucosamine, chondroitin 4-sulfate, and crystalline hydrous trehalose, which were all in a reagent grade, and designated as “test compounds” hereinafter), were respectively dissolved in phosphate buffer saline (described as “PBS” hereinafter), and intraperitoneally injected alone or in an appropriate combination daily to the rats of the group Nos. 1 to 11 at the doses in the following Table 2. As a control, PBS was administrated daily to each rat of the group No. 12 at a dose of 1 ml per day by the same administration route as above. Hereinafter, the day number means a day counted from the starting day of administration. In accordance with the method of inducing arthritis by type II collagen immunization described by K. Terato, in “Biomedical research”, Vol. 3, pp. 495-505, 1982, on day 3, 800 μg/head of a type II collagen from bovine in a reagent grade along with Freund's incomplete adjuvant was administered to the dorsal subcutaneous; and on day 10, a fresh preparation of the same collagen and adjuvant as used above were administered at a dose of about 1/10 of that of on day 3. Test compounds were administered to the rats daily until day 24.
During the term of the above experiment, on day 3 just before the administration of collagen and on day 24 just after the administration of the test compounds, both hind foot volumes of every rat were measured according to the method described by D. T. Walz in “Journal of Experimental Therapy”, Vol. 152, pp. 116-121, 1971. Increasing rate (%) of the total hind foot volume of each rat was calculated by substituting the data for the Formula 1 below. Increasing rate of hind foot volume (%)=[{(Measured volume on day 24)−(Measured volume on day 3)}/(Measured volume on day 3)]×100 Formula 1
The effect of alleviating arthritis for each test compound was judged on the basis of the criterion described in the following Table 1, after calculating the averages of increased rates of hind foot volumes in the rats of the group Nos. 1 to 11 and the relative values of the above averages when the average in the control group was regarded as 100. The results are in Table 2
As a result, the effect of glucosamine or N-acetylglucosamine with trehalose was judged as high (symbol “+”) even with the tested minimum amount of 5 mg/kg body weight/day. […]

Compound | Enhancement of the alleviation effect of amino sugars on arthritis | Judgment (symbol) of the effect of alleviating arthritis (intraperitoneal) | Relative value of the average of increasing rate of hind foot volume when the average in the control group was regarded as 100 (intraperitoneal) | also measured
OC[C@H]1O[C@H](O[C@H]2[C@H](O)[C@@H](O)C(O)O[C@@H]2CO)[C@H](O)[C@@H](O)[C@@H]1O (mixture of isomers) [maltose] | no enhanced effect |  |  | 
N[C@H]1C(O)O[C@H](CO)[C@@H](O)[C@@H]1O (some centres unmarked) [GlcN, glucosamine] |  | − (67 or more) | 88 | 
CC(=O)N[C@H]1C(O)O[C@H](CO)[C@@H](O)[C@@H]1O (some centres unmarked) [GlcNAc, N-acetylglucosamine] |  | − (67 or more) | 89 | 
OC[C@H]1O[C@H](O[C@H]2O[C@H](CO)[C@@H](O)[C@H](O)[C@H]2O)[C@H](O)[C@@H](O)[C@@H]1O [Trehalose, trehalose] |  | − (67 or more) | 98 | Increasing rate of hind foot volume compared with the control group (Experiment 1, group No. 6, trehalose alone 200 mg/kg body weight/day, intraperitoneal): No difference
COc1ccc2c(c1)c(CC(=O)O)c(C)n2C(=O)c1ccc(Cl)cc1 [indomethacin] |  |  |  | Increasing rate of hind foot volume (3 mg/kg body weight, some rats, data not shown): < 20%
OC[C@@H](O)[C@@H](O[C@H]1O[C@H](CO)[C@@H](O)[C@H](O)[C@H]1O)[C@H](O)[C@@H](O)CO [maltitol] | no enhanced effect |  |  | 
OC[C@H]1O[C@@H](O[C@H]2O[C@H](CO)[C@@H](O)[C@H](O)[C@H]2O)[C@H](O)[C@@H](O)[C@@H]1O [neotrehalose] | no enhanced effect |  |  | 
OC[C@@H](O)[C@@H](O)[C@H](O)[C@@H](O)CO [sorbitol] | no enhanced effect |  |  | 
chondroitin 4-sulfate [Ch4S] |  | − (67 or more) | 95 | 
